Laboratory results reported in article PMC12028158, “Synthesis and In Vitro Evaluation of the Anticancer Effect of Novel Phosphonium Vindoline Derivatives” (International Journal of Molecular Sciences, 2025).

Key:
Format in all cases: cell-based
A549/ATCC = experiment: NCI60 five-dose screen; conditions: Homo sapiens, A549
HOP-92 [1] = experiment: NCI60 five-dose screen; conditions: Homo sapiens, HOP-92
NCI-H226 [2] = experiment: NCI60 five-dose screen; conditions: Homo sapiens, NCI-H226
HCC-2998 = experiment: NCI60 five-dose screen; conditions: Homo sapiens, HCC 2998
HT29 = experiment: NCI60 five-dose screen; conditions: Homo sapiens, HT-29
SF-268 = experiment: NCI60 five-dose screen; conditions: Homo sapiens, SF-268
SNB-19 = experiment: NCI60 five-dose screen; conditions: Homo sapiens, SNB-19
SNB-75 = experiment: NCI60 five-dose screen; conditions: Homo sapiens, SNB-75
MDA-MB-435 = experiment: NCI60 five-dose screen; conditions: Homo sapiens, MDA-MB-435
SK-MEL-2 [3] = experiment: NCI60 five-dose screen; conditions: Homo sapiens, SK-MEL-2
SK-MEL-5 = experiment: NCI60 five-dose screen; conditions: Homo sapiens, SK-MEL-5
IGROV1 = experiment: NCI60 five-dose screen; conditions: Homo sapiens, IGROV-1
CAKI-1 [4] = experiment: NCI60 five-dose screen; conditions: Homo sapiens, CAKI-1
SN12C = experiment: NCI60 five-dose screen; conditions: Homo sapiens
UO-31 = experiment: NCI60 five-dose screen; conditions: Homo sapiens, UO-31
MDA-MB231ATCC = experiment: NCI60 five-dose screen; conditions: Homo sapiens, MDA-MB-231
HS 578T = experiment: NCI60 five-dose screen; conditions: Homo sapiens, Hs-578T
T-47D = experiment: NCI60 five-dose screen; conditions: Homo sapiens, T47D
Leukemia panel = experiment: NCI60 five-dose screen, panel mean; conditions: Homo sapiens, read-out: GI50 Mean
Colon Cancer panel = experiment: NCI60 five-dose screen, panel mean; conditions: Homo sapiens, read-out: GI50 Mean
CNS Cancer panel = experiment: NCI60 five-dose screen, panel mean; conditions: Homo sapiens, read-out: GI50 Mean
Breast Cancer panel = experiment: NCI60 five-dose screen, panel mean; conditions: Homo sapiens, read-out: GI50 Mean
[5] = tested on: 60 human tumor cell lines (NCI60); experiment: NCI60 five-dose screen, overall mean; conditions: read-out: GI50 Mean, mean over all 60 human cancer cell lines
HL-60(TB) = experiment: NCI60 one-dose screen; conditions: Homo sapiens, HL-60, read-out: Growth percent
MOLT-4 = experiment: NCI60 one-dose screen; conditions: Homo sapiens, MOLT-4, read-out: Growth percent
HOP-62 = experiment: NCI60 one-dose screen; conditions: Homo sapiens, HOP-62, read-out: Growth percent
HOP-92 [6] = experiment: NCI60 one-dose screen; conditions: Homo sapiens, HOP-92, read-out: Growth percent
NCI-H226 [7] = experiment: NCI60 one-dose screen; conditions: Homo sapiens, NCI-H226, read-out: Growth percent
SF-295 = experiment: NCI60 one-dose screen; conditions: Homo sapiens, SF-295, read-out: Growth percent
U251 = experiment: NCI60 one-dose screen; conditions: Homo sapiens, U-251, read-out: Growth percent
SK-MEL-2 [8] = experiment: NCI60 one-dose screen; conditions: Homo sapiens, SK-MEL-2, read-out: Growth percent
UACC-257 = experiment: NCI60 one-dose screen; conditions: Homo sapiens, UACC-257, read-out: Growth percent
OVCAR-8 = experiment: NCI60 one-dose screen; conditions: Homo sapiens, OVCAR-8, read-out: Growth percent
ACHN = experiment: NCI60 one-dose screen; conditions: Homo sapiens, read-out: Growth percent
CAKI-1 [9] = experiment: NCI60 one-dose screen; conditions: Homo sapiens, CAKI-1, read-out: Growth percent
MCF7 = experiment: NCI60 one-dose screen; conditions: Homo sapiens, MCF7, read-out: Growth percent
BT-549 = experiment: NCI60 one-dose screen; conditions: Homo sapiens, BT-549, read-out: Growth percent

CC[C@]12C=CCN3CC[C@@]4(c5ccc(OC)cc5N(C)[C@H]4[C@@](O)(C(=O)OC)[C@@H]1OC(=O)CCCC[P+](c1ccccc1)(c1ccccc1)c1ccccc1)[C@@H]32 [compound 4, reference compound]
GI50 (A549/ATCC): 1.02 µM | GI50 (HOP-92 [1]): 0.268 µM | GI50 (NCI-H226 [2]): 1.93 µM | GI50 (HCC-2998): 0.367 µM | GI50 (HT29): 0.404 µM | GI50 (SF-268): 0.634 µM | GI50 (SNB-19): 0.397 µM | GI50 (SNB-75): 0.221 µM | GI50 (MDA-MB-435): 0.357 µM | GI50 (SK-MEL-2 [3]): 0.279 µM | GI50 (SK-MEL-5): 1.71 µM | GI50 (IGROV1): 0.553 µM | GI50 (CAKI-1 [4]): 2.82 µM | GI50 (SN12C): 0.467 µM | GI50 (UO-31): 12.2 µM | GI50 (MDA-MB231ATCC): 0.37 µM | GI50 (HS 578T): 1.23 µM | GI50 (T-47D): 0.303 µM | GI50 (Leukemia panel): 0.6 µM | GI50 (Colon Cancer panel): 3.19 µM | GI50 (CNS Cancer panel): 0.94 µM | GI50 (Breast Cancer panel): 0.5 µM | GI50 [5]: 3.52 µM | activity at 10 µM (HL-60(TB)): -63.5% | activity at 10 µM (MOLT-4): 5.66% | activity at 10 µM (HOP-62): 26.4% | activity at 10 µM (HOP-92 [6]): -30% | activity at 10 µM (NCI-H226 [7]): 15.1% | activity at 10 µM (SF-295): 58.1% | activity at 10 µM (U251): 10.9% | activity at 10 µM (SK-MEL-2 [8]): -41.6% | activity at 10 µM (UACC-257): 2.15% | activity at 10 µM (OVCAR-8): 18.6% | activity at 10 µM (ACHN): 93% | activity at 10 µM (CAKI-1 [9]): 85.9% | activity at 10 µM (MCF7): 4.69% | activity at 10 µM (BT-549): -1.04%
